Read-outs that look alike come from different tables or passages of the source.
Columns and labels:
[1] = system: HDAC activity in primary mouse cortical cultures; assay: Whole-Cell Histone Deacetylase (HDAC) Inhibition Assay in Primary Mouse Cortical Cultures; type: cell-based
Procedure, shortened: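 Primary neocortical neurons from E17 Balb/C mouse embryos were plated at 50000 cells/well and treated at DIV9 with ten-point DMSO dilutions for 16-18 h at 37° C, in triplicate. BOC-Lys(Ac)-AMC substrate was then added for 1 h. Fluor de Lys developer containing 1 uM TSA produced a fluorophore, which was read.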

[2] = biological target: one or more of HDAC-1, HDAC-2, HDAC-3, HDAC-4, HDAC-5, HDAC-6, HDAC-7, HDAC-8, HDAC-9, HDAC-10 and HDAC-11; assay: Inhibition of Histone Deacetylase Enzymatic Activity (Boc-Lys(Ac)-AMC substrate, Fluor-de-Lys developer); type: biochemical; conditions: read-out: HDAC Inhibition (IC50 μM) HDAC Enzyme
Description: The following protocol is used to assay the compounds of the disclosure.
The mixture is pre-incubated for 5 minutes at room temperature. The reaction is started by bringing the temperature to 37° C. and adding 16 μl substrate. Total reaction volume is 50 μl.
In the Tables 8, 9 and 10, A≦0.05 μM; 0.05 μM<B≦0.1 μM; 0.1 μM<C≦1 μM; and 1 μM<D≦10 μM.

[3] = whole-cell (WC), mouse cortical neurons, Table 9, read-out: HDAC Inhibition (IC50 μM) WC mouse cortical neurons
[4] = whole-cell (WC), mouse cortical neurons, Table 10, read-out: HDAC Inhibition (IC50 μM) WC mouse cortical neurons
[5] = whole-cell (WC), mouse cortical neurons, Table 8, read-out: HDAC Inhibition (IC50 μM) WC mouse cortical neurons

Structure (SMILES)	IC50 [1, 4] [µM]	IC50 ([2]; Table 10) [µM]	IC50 [1, 5] [µM]	IC50 ([2]; Table 8) [µM]	also measured
O=C(NO)c1cnc(N2C[C@@H]3C[C@H]2CN3c2ccc3c(c2)OC(F)(F)O3)nc1 [2-((1S,4S)-5-(2,2-difluorobenzo[d][1,3]dioxol-5-yl)-2,5-diazabicyclo[2.2.1]heptan-2-yl)-N-hydroxypyrimidine-5-carboxamide]	–	–	–	–	IC50 [1, 3]: 1 to 5 µM; IC50 ([2]; Table 9): < 0.05 µM
O=C(NO)c1cnc(N2C[C@@H]3C[C@H]2CN3c2cccc(C(F)(F)F)c2)s1 [N-hydroxy-2-((1S,4S)-5-(3-(trifluoromethyl)phenyl)-2,5-diazabicyclo[2.2.1]heptan-2-yl)thiazole-5-carboxamide]	–	–	–	–	IC50 [1, 3]: 1 to 5 µM; IC50 ([2]; Table 9): < 0.05 µM
O=C(CCCCCN1c2ccccc2C=Cc2ccccc21)NO [(Z)-6-(5H-dibenzo[b,f]azepin-5-yl)-N-hydroxyhexanamide]	1 to 5	< 0.05	–	–	–
O=C(CCCCCN1C(=O)c2ccccc2Oc2ccccc21)NO [N-hydroxy-6-(11-oxodibenzo[b,f][1,4]oxazepin-10(11H)-yl)hexanamide]	< 1	< 0.05	–	–	–
O=C(CCCCCC(=O)N1c2ccccc2C=Cc2ccccc21)NO [(Z)-7-(5H-dibenzo[b,f]azepin-5-yl)-N-hydroxy-7-oxoheptanamide]	< 1	< 0.05	–	–	–
O=C(CCCCCN1C(=O)c2ccccc2N(C2CC2)c2ccccc21)NO [6-(5-cyclopropyl-11-oxo-5H-dibenzo[b,e][1,4]diazepin-10(11H)-yl)-N-hydroxyhexanamide]	1 to 5	0.1 to 1	–	–	–
O=C(CCCCCON=c1c2ccccc2ccc2ccccc12)NO	5 to 15	0.1 to 1	–	–	–
O=C(CCCCCCN1C(=O)c2ccccc2N(C2CC2)c2ccccc21)NO [7-(5-cyclopropyl-11-oxo-5H-dibenzo[b,e][1,4]diazepin-10(11H)-yl)-N-hydroxyheptanamide]	1 to 5	0.1 to 1	–	–	–
Cc1ccc(N2C[C@@H]3C[C@H]2CN3c2ncc(C(=O)NO)cn2)cc1 [N-hydroxy-2-((1S,4S)-5-p-tolyl-2,5-diazabicyclo[2.2.1]heptan-2-yl)pyrimidine-5-carboxamide]	–	–	–	–	IC50 [1, 3]: < 1 µM; IC50 ([2]; Table 9): < 0.05 µM
O=C(CCCCCCN1C(=O)c2ccccc2Sc2ccccc21)NO [N-hydroxy-7-(11-oxodibenzo[b,f][1,4]thiazepin-10(11H)-yl)heptanamide]	< 1	< 0.05	–	–	–
CCCc1cccc2c1Oc1ccccc1N=C2c1ccc(C(=O)NO)cc1 [(Z)—N-hydroxy-4-(4-propyldibenzo[b,f][1,4]oxazepin-11-yl)benzamide]	–	–	> 15	0.1 to 1	–
O=C(NO)c1ccc(CCCN2C(=O)c3ccccc3Oc3ccccc32)cc1 [N-hydroxy-4-(3-(11-oxodibenzo[b,f][1,4]oxazepin-10(11H)-yl)propyl)benzamide]	< 1	0.05 to 0.1	–	–	–
O=C(NO)c1ccc(C2=Nc3cc(C(F)(F)F)ccc3Oc3ccccc32)cc1 [(Z)—N-hydroxy-4-(8-(trifluoromethyl)dibenzo[b,f][1,4]oxazepin-11-yl)benzamide]	–	–	5 to 15	0.1 to 1	–
O=C(CCCCON=C1c2ccccc2CCc2ccccc21)NO	5 to 15	0.1 to 1	–	–	–
O=C(NO)c1cnc(N2C[C@@H]3C[C@H]2CN3C(=O)c2cccc(C(F)(F)F)c2)nc1 [N-hydroxy-2-((1S,4S)-5-(3-(trifluoromethyl)benzoyl)-2,5-diazabicyclo[2.2.1]heptan-2-yl)pyrimidine-5-carboxamide]	–	–	–	–	IC50 [1, 3]: 1 to 5 µM; IC50 ([2]; Table 9): 0.05 to 0.1 µM
N#Cc1cccc(N2C[C@@H]3C[C@H]2CN3c2ccc(C(=O)NO)cc2)c1 [4-((1S,4S)-5-(3-cyanophenyl)-2,5-diazabicyclo[2.2.1]heptan-2-yl)-N-hydroxybenzamide]	–	–	–	–	IC50 [1, 3]: 1 to 5 µM; IC50 ([2]; Table 9): 0.1 to 1 µM
COc1cccc2c1Oc1ccccc1N=C2c1ccc(C(=O)NO)cc1 [(Z)—N-hydroxy-4-(4-methoxydibenzo[b,f][1,4]oxazepin-11-yl)benzamide]	–	–	1 to 5	0.05 to 0.1	–
O=C(NO)c1ccc(C#CCN2C(=O)c3ccccc3Oc3ccccc32)cc1 [N-hydroxy-4-(3-(11-oxodibenzo[b,f][1,4]oxazepin-10(11H)-yl)prop-1-ynyl)benzamide]	1 to 5	< 0.05	–	–	–
O=C(NO)c1ccc(C2=Nc3ccccc3Oc3cc(F)ccc32)cc1 [(Z)-4-(3-fluorodibenzo[b,f][1,4]oxazepin-11-yl)-N-hydroxybenzamide]	–	–	> 15	0.1 to 1	–
O=C(/C=C/c1ccc2c(c1)NC(=O)CN=C2c1ccccc1)NO [(E)-N-hydroxy-3-((Z)-2-oxo-5-phenyl-2,3-dihydro-1H-benzo[e][1,4]diazepin-8-yl)acrylamide]	–	0.05 to 0.1	–	–	IC50 ([1]; read-out: HDAC Inhibition (IC50 μM) WC mouse cortical neurons, Table 10): 1 to 5 µM
O=C(/C=C/c1ccc(CNC2c3ccccc3CCc3ccccc32)cc1)NO	5 to 15	0.05 to 0.1	–	–	–
COc1cccc(N2CC3CC2CN3c2ccc(C(=O)NO)cc2)c1 (stereo not drawn) [N-hydroxy-4-(5-(3-methoxyphenyl)-2,5-diazabicyclo[2.2.1]heptan-2-yl)benzamide]	–	–	–	–	IC50 [1, 3]: 1 to 5 µM; IC50 ([2]; Table 9): 0.1 to 1 µM
Cc1cccc(N2C[C@@H]3C[C@H]2CN3c2ncc(C(=O)NO)cn2)c1 [N-hydroxy-2-((1S,4S)-5-m-tolyl-2,5-diazabicyclo[2.2.1]heptan-2-yl)pyrimidine-5-carboxamide]	–	–	–	–	IC50 [1, 3]: < 1 µM; IC50 ([2]; Table 9): < 0.05 µM
CN(C)Cc1cccc(N2C[C@@H]3C[C@H]2CN3c2ncc(C(=O)NO)cn2)c1 [2-((1S,4S)-5-(3-((dimethylamino)methyl)phenyl)-2,5-diazabicyclo[2.2.1]heptan-2-yl)-N-hydroxypyrimidine-5-carboxamide]	–	–	–	–	IC50 [1, 3]: < 1 µM; IC50 ([2]; Table 9): < 0.05 µM
CC(C)COC(=O)N1C[C@@H]2C[C@H]1CN2c1ncc(C(=O)NO)cn1 [(1S,4S)-isobutyl 5-(5-(hydroxycarbamoyl)pyrimidin-2-yl)-2,5-diazabicyclo[2.2.1]heptane-2-carboxylate]	–	–	–	–	IC50 [1, 3]: < 1 µM; IC50 ([2]; Table 9): < 0.05 µM
O=C(NO)c1ccc(OCCN2C(=O)c3ccncc3Oc3ccccc32)cc1	< 1	< 0.05	–	–	–
O=C(NO)c1ccc(C2=Nc3ccccc3Oc3cc(C(F)(F)F)ccc32)cc1 [(Z)—N-hydroxy-4-(3-(trifluoromethyl)dibenzo[b,f][1,4]oxazepin-11-yl)benzamide]	–	–	> 15	0.05 to 0.1	–

Continued, in another order:

IC50 [1, 4] [µM]	IC50 ([2]; Table 10) [µM]	IC50 [1, 5] [µM]	IC50 ([2]; Table 8) [µM]	Structure (SMILES)	also measured
1 to 5	0.05 to 0.1	–	–	O=C(NO)c1cnc(N2CCCN(C(=O)OCc3ccccc3)CC2)nc1 [benzyl 4-(5-(hydroxycarbamoyl)pyrimidin-2-yl)-1,4-diazepane-1-carboxylate]	–
–	–	5 to 15	< 0.05	O=C(NO)c1ccc(C2=Nc3ccccc3Oc3ccc(Cl)cc32)cc1 [(Z)-4-(2-chlorodibenzo[b,f][1,4]oxazepin-11-yl)-N-hydroxybenzamide]	–
–	–	> 15	0.1 to 1	O=C(NO)c1cccc(C2=Nc3ccccc3Oc3ccccc32)c1 [(Z)-3-(dibenzo[b,f][1,4]oxazepin-11-yl)-N-hydroxybenzamide]	–
–	–	1 to 5	0.05 to 0.1	Cc1ccc2c(c1)N=C(c1ccc(C(=O)NO)cc1)c1ccccc1O2 [(Z)—N-hydroxy-4-(8-methyldibenzo[b,f][1,4]oxazepin-11-yl)benzamide]	–
5 to 15	1 to 10	–	–	O=C(NO)c1cnc(ON=C(c2ccccc2)c2ccccc2)nc1 [2-(diphenylmethyleneaminooxy)-N-hydroxypyrimidine-5-carboxamide]	–
5 to 15	0.1 to 1	–	–	O=C(NO)c1cnc(N2CCN(C3c4ccccc4CCc4ccccc43)CC2)nc1	–
< 1	< 0.05	–	–	CN1CCC2=C(C1)Oc1ccccc1N(CCOc1ccc(C(=O)NO)cc1)C2=O	–
1 to 5	< 0.05	–	–	O=C(NO)c1cnc(N2CCn3c(nnc3-c3ccccc3)C2)nc1 [N-hydroxy-2-(3-phenyl-5,6-dihydro-[1,2,4]triazolo[4,3-a]pyrazin-7(8H)-yl)pyrimidine-5-carboxamide]	–
–	–	1 to 5	< 0.05	O=C(NO)c1ccc(C2=Nc3ccccc3Oc3ccc(F)cc32)cc1 [(Z)-4-(2-fluorodibenzo[b,f][1,4]oxazepin-11-yl)-N-hydroxybenzamide]	–
–	–	1 to 5	0.05 to 0.1	CCN1c2ccccc2N=C(c2ccc(C(=O)NO)cc2)c2ccccc21 [(Z)-4-(5-ethyl-5H-dibenzo[b,e][1,4]diazepin-11-yl)-N-hydroxybenzamide]	–
–	–	5 to 15	0.1 to 1	O=C(NO)c1ccc(C2=Nc3ccc(Cl)cc3Oc3ccccc32)cc1 [(Z)-4-(7-chlorodibenzo[b,f][1,4]oxazepin-11-yl)-N-hydroxybenzamide]	–
< 1	< 0.05	–	–	O=C(NO)c1cnc(NC(c2ccccc2)c2ccccc2)nc1 [2-(benzhydrylamino)-N-hydroxypyrimidine-5-carboxamide]	–
–	–	5 to 15	0.1 to 1	O=C(NO)c1ccc(C2=Nc3ccccc3Oc3cc(N4CCOCC4)ccc32)cc1 [(Z)—N-hydroxy-4-(3-morpholinodibenzo[b,f][1,4]oxazepin-11-yl)benzamide]	–
–	–	1 to 5	0.05 to 0.1	N#Cc1ccc2c(c1)N=C(c1ccc(C(=O)NO)cc1)c1ccccc1O2 [(Z)-4-(8-cyanodibenzo[b,f][1,4]oxazepin-11-yl)-N-hydroxybenzamide]	–
5 to 15	< 0.05	–	–	O=C(NO)c1cnc(NCC2c3ccccc3CCc3ccccc32)nc1	–
